Drawing on ChEMBL document CHEMBL2010766, “Bivalent Ligands for the Serotonin 5-HT3 Receptor” (ACS Med Chem Lett, 2011), this text covers Ki for 19 compounds.

The assay addresses T1, 5-hydroxytryptamine receptor 3A (Rattus norvegicus, UniProt P35563).
T1 sequence (P35563 whole entry): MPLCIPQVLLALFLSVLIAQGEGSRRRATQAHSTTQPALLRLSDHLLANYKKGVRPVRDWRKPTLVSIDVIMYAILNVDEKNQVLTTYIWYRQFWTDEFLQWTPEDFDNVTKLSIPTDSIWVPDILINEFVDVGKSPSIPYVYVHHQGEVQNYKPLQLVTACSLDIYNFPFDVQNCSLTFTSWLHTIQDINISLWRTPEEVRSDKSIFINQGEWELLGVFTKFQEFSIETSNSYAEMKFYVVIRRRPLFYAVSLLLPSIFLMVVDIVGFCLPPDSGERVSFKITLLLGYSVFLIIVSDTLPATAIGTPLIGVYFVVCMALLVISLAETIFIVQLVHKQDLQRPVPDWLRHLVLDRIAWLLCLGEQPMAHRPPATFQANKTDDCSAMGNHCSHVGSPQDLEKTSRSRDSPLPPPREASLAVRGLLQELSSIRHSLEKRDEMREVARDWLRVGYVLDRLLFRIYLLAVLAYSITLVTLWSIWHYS
The assay can be described thus: Displacement of [3H]granisetron from 5HT3 receptor in Wistar rat cortical membranes by liquid scintillation spectrometry. The format is cell membranes, Membrane. On the technique in general: Loss of bound radioactivity is the signal in a displacement assay; it reports binding, not function.

Usually Ki stands for a dissociation constant, usually derived from enzyme kinetics or from competition with a known ligand.

`Cc1c(N2CCN(C)CC2)nc2ccccc2c1C(=O)NCCCCCCCNc1c2c(nc3ccccc13)CCCC2` gave a Ki of 5.6 nM. In the case of `Cc1c(N2CCN(C)CC2)nc2ccccc2c1C(=O)NCCCCCCNC(=O)c1c(C)c(N2CCN(C)CC2)nc2ccccc12`, the Ki worked out at 28 nM. For `Cc1c(N2CCN(C)CC2)nc2ccccc2c1C(=O)NCCCCCCCNC(=O)c1c(C)c(N2CCN(C)CC2)nc2ccccc12` the value was 2.7 nM.

`Cc1c(N2CCN(C)CC2)nc2ccccc2c1C(=O)NCCCCCCCCNC(=O)c1c(C)c(N2CCN(C)CC2)nc2ccccc12` registered an inhibition constant (Ki) of 67 nM.

In turn, `Cc1c(N2CCN(C)CC2)nc2ccccc2c1C(=O)NCCOCCOCCNC(=O)c1c(C)c(N2CCN(C)CC2)nc2ccccc12` gave a Ki of 7.7 nM. The value for `Cc1c(N2CCN(C)CC2)nc2ccccc2c1C(=O)NCCOCCOCCOCCOCCOCCOCCOCCNC(=O)c1c(C)c(N2CCN(C)CC2)nc2ccccc12` was 27 nM; that for `Cc1c(N2CCN(C)CC2)nc2ccccc2c1C(=O)NCCOCCOCCOCCOCCOCCOCCOCCOCCOCCNC(=O)c1c(C)c(N2CCN(C)CC2)nc2ccccc12` was 15 nM. On to `Cc1c(N2CCN(C)CC2)nc2ccccc2c1C(=O)NCCCCCCNc1c2c(nc3ccccc13)CCCC2`, for which the inhibition constant Ki was 71 nM. The value for `Cc1c(N2CCN(C)CC2)nc2ccccc2c1C(=O)NCCCCCCCCNc1c2c(nc3ccccc13)CCCC2` was 69 nM. Regarding `Cc1c(N2CCN(C)CC2)nc2ccccc2c1C(=O)NCCCCCCCNC(=O)NC[13C](=O)O`, the Ki is 26 nM. The value for `Cc1c(N2CCN(C)CC2)nc2ccccc2c1C(=O)NCCOCCOCCNC(=O)NC[13C](=O)O` was 141 nM; that for `Cc1c(N2CCN(C)CC2)nc2ccccc2c1C(=O)NCCOCCOCCOCCOCCOCCOCCOCCNC(=O)NC[13C](=O)O` was 106 nM. For `Cc1c(N2CCN(C)CC2)nc2ccccc2c1C(=O)NCCOCCOCCOCCOCCOCCOCCOCCOCCOCCNC(=O)NC[13C](=O)O` the value was 154 nM; for `Cc1c(N2CCN(C)CC2)nc2ccccc2c1C(=O)NCCCCCCNC(=O)OC(C)(C)C`, 178 nM; for `Cc1c(N2CCN(C)CC2)nc2ccccc2c1C(=O)NCCCCCCCNC(=O)OC(C)(C)C`, 18 nM. For `Cc1c(N2CCN(C)CC2)nc2ccccc2c1C(=O)NCCCCCCCCNC(=O)OC(C)(C)C` the value was 127 nM. On to `Cc1c(N2CCN(C)CC2)nc2ccccc2c1C(=O)NCCOCCOCCNC(=O)OC(C)(C)C`, for which the affinity corresponds to a Ki of 132 nM.

The compound `Cc1c(N2CCN(C)CC2)nc2ccccc2c1C(=O)NCCOCCOCCOCCOCCOCCOCCOCCNC(=O)OC(C)(C)C` gave an inhibition constant (Ki) of 89 nM. For `Cc1c(N2CCN(C)CC2)nc2ccccc2c1C(=O)NCCOCCOCCOCCOCCOCCOCCOCCOCCOCCNC(=O)OC(C)(C)C` the value was 71 nM.
